In patent publication US12692255B2, “Adenosine 2A receptor modulators for use in the treatment of cancer” (UNIVERSITE DE GENEVE, priority 2022, dated 2026) one finds inhibition and IC50 data, which are given here for 18 molecules.

For orientation: pIC50 means the negative decadic logarithm of the IC50, by convention in mol/L.

pIC50: −log10 of the molar value. Read-outs that look alike come from different tables or passages of the source.

Assay [1] has as its system pCREB in gated human CD4+ cells. Briefly: Intracellular pCREB by flow cytometry in NECA-treated PBMCs, gated CD4+ T cells. The format is cell-based. Particulars: read-out: Activity (reduction of pCREB, restoration to normal physiological levels). As for the experimental part:
(§1) Human peripheral blood mononuclear cells (PBMCs) were isolated using density centrifugation from fresh whole blood of healthy human blood donors. Cells were cryopreserved and thawed and rested for several hours in complete cell culture media containing human albumin and antibiotics (penicillin and streptomycin; 100 units or mg per ml respectively). […] DMSO was used as the storage diluent for concentrated A2AR antagonists. NECA and DMSO controls (% v/v) were also tested in parallel to the therapeutic candidates. After the indicated incubation time with NECA, cells were either stained to determine their intracellular level of pCREB, or activated with Dynabeads overnight before staining for intracellular cytokines, as described below.
(§2) PBMCs that were cultured with A2AR antagonists in the presence of NECA and were subsequently fixed and permeabilized using ice cold paraformaldehyde and methanol-based kit reagents (ThermoFisher and Miltenyi, respectively). […] Stained cells were acquired using a Fortessa flow cytometer (BD). Gating of the desired cell subsets was performed using FSC-A vs FSC—H to remove doublet cells, FSC vs SSC parameters to identify cells with lymphocyte-like morphology, followed by CD3^+ T cell and CD4^+ or CD8^+ sub-gating. The fold change in mean fluorescence intensity (MFI) of intracellular pCREB in gated CD4 or CD8^+ T cells was calculated using NECA-only conditions, and divided by NECA and A2AR antagonist-cultured cells from the same donor. The overall activity of the tested compounds was calculated using the average of at least 3 donors.
(§3) Compounds of the invention were tested in physiological conditions using healthy human peripheral blood mononuclear cells as well as in the presence of human albumin to increase the physiological relevance of the assay. […] The activity scale represented is the average for at least 3 donors, compared to the NECA-only control.

Assay [2] deals with pCREB in gated human CD8+ cells. In words: Intracellular pCREB by flow cytometry in NECA-treated PBMCs, gated CD8+ T cells. To be noted: read-out: Activity (reduction of pCREB, restoration to normal physiological levels). The format is cell-based. As for the experimental part: as §1, §2, §3
A general note: A flow cytometer gives signals particle by particle.

Assay [3] concerns the target A2AR (Homo sapiens, UniProt P29274). In words: cAMP biosensor antagonist potency assay in CHO cells expressing recombinant A2AR.
Method: Chinese Hamster Ovary (CHO) cells containing an in-house cAMP-based biosensor, described below, and expressing recombinant A2AR were used to characterize the potency of A2AR antagonists according to the invention. The biosensor contains a cAMP binding domain allowing the measurement of Gs and Gi-coupled receptors activation. Cells were treated in a 384 well plate with the indicated concentrations of A2AR antagonists, followed by the addition of an A2AR agonist, adenosine. cAMP levels were measured on a luminescent/fluorescent plate reader.
CHO cells expressing A2AR and the biosensor were seeded in a black 384-well plate (Nunc) and grown at 37° C. and 5% CO2 overnight. […] The cAMP biosensor allowed real-time monitoring of signals using an FDSS/μCELL (Hamamatsu). The assay was conducted in 1× Hanks Balanced Salt Solution (HBSS). The total volume of the reaction was 80 μl (45 μl of cells, 15 μl of antagonist and 20 μl of agonist). Data analysis was performed using GraphPad Prism.
Setting [4] is: compound at 1 μM, 5 µM NECA, gated human CD4+ cells, average of at least 3 donors vs NECA-only control.
Where [5] appears, read: compound at 1 μM, 5 µM NECA, gated human CD8+ cells, average of at least 3 donors vs NECA-only control.

Sequence of A2AR (P29274 whole entry): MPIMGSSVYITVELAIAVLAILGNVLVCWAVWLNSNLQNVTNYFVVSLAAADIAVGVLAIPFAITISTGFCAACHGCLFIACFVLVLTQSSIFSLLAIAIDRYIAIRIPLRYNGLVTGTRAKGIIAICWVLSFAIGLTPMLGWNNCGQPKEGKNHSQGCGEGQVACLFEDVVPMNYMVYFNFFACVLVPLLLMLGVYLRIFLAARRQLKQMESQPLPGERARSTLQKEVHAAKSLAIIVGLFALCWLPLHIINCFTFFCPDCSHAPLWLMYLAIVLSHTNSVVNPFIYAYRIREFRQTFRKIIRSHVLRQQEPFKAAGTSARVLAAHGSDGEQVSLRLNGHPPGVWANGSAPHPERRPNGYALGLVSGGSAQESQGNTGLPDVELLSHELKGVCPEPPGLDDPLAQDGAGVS

For the molecule `Cc1ccc(-c2nc(N)nc3c2nnn3Cc2cccc(CO[C@H]3CCOC3)n2)o1` [Ciforadenant, 7-(5-methylfuran-2-yl)-3-[[6-[[(3S)-oxolan-3-yl]oxymethyl]pyridin-2-yl]methyl]triazolo[4,5-d]pyrimidin-5-amine, reference compound], the inhibition at 1 µM in assay [1] (setting [4]) and in assay [2] (setting [5]) was 70 to 90% in each case. Consider `N#Cc1c(N)nc(N2CCCCC2)c(C#N)c1-c1cccc(-c2ccccc2)c1` [Compound 3, 4-([1,1′-biphenyl]-3-yl)-2-amino-6-(piperidin-1-yl)pyridine-3,5-dicarbonitrile], for which the inhibition at 1 µM in assay [1] (Homo sapiens) and in assay [2] (Homo sapiens) was over 90% each time.

Consider `N#Cc1c(N)nc(N2CCCCC2)c(C#N)c1-c1cccc(-c2ccccc2F)c1` [Compound 4, 2-amino-4-(2′-fluoro-[1,1′-biphenyl]-3-yl)-6-(piperidin-1-yl)pyridine-3,5-dicarbonitrile], for which the inhibition at 1 µM in assay [1] (Homo sapiens) and in assay [2] (Homo sapiens) was over 90% in each case. For the molecule `N#Cc1c(N)nc(N2CCOCC2)c(C#N)c1-c1cccc(-c2ccccc2)c1` [Compound 18, 4-([1,1′-biphenyl]-3-yl)-2-amino-6-morpholinopyridine-3,5-dicarbonitrile], the pIC50 in assay [3] is 6.00 to 6.70.

Take `COc1nc(N)c(C#N)c(-c2cccc(-c3ccccc3)c2)c1C#N` [Compound 21, 4-([1,1′-biphenyl]-3-yl)-2-amino-6-methoxypyridine-3,5-dicarbonitrile]: the pIC50 in assay [3] is 6.00 to 6.70.

With `CCOc1nc(N)c(C#N)c(-c2cccc(-c3ccccc3)c2)c1C#N` [Compound 22, 4-([1,1′-biphenyl]-3-yl)-2-amino-6-ethoxypyridine-3,5-dicarbonitrile], the pIC50 in assay [3] is over 6.70.

`N#Cc1c(N)nc(N2CCCCC2)c(C#N)c1-c1cccc(-c2ncccc2F)c1` [Compound 24, 2-amino-4-(3-(3-fluoropyridin-2-yl)phenyl)-6-(piperidin-1-yl)pyridine-3,5-dicarbonitrile]: the inhibition at 1 µM lay in the range of 70 to 90% in assay [1] (setting [4]) and 40 to 70% in assay [2] (setting [5]). Further, the pIC50 in assay [3] is over 6.70. Take `N#Cc1c(N)nc(N2CCCCC2)c(C#N)c1-c1cccc(-c2cccc(F)n2)c1` [Compound 25, 2-amino-4-(3-(6-fluoropyridin-2-yl)phenyl)-6-(piperidin-1-yl)pyridine-3,5-dicarbonitrile]: the pIC50 in assay [3] is over 6.70. As for `N#Cc1c(N)nc(N2CCCCC2)c(C#N)c1-c1cccc(-c2cc(F)ccn2)c1` [Compound 26, 2-amino-4-(3-(4-fluoropyridin-2-yl)phenyl)-6-(piperidin-1-yl)pyridine-3,5-dicarbonitrile], in assay [3], the pIC50 was 6.00 to 6.70. Still for that read-out and setting: in the case of `N#Cc1c(N)nc(N2CCCCC2)c(C#N)c1-c1cccc(-c2cncc(F)c2)c1` [Compound 27, 2-amino-4-(3-(5-fluoropyridin-3-yl)phenyl)-6-(piperidin-1-yl)pyridine-3,5-dicarbonitrile] it was 6.00 to 6.70. On to `N#Cc1c(N)nc(N2CCCCC2)c(C#N)c1-c1cccc(-c2cccnc2F)c1` [Compound 28, 2-amino-4-(3-(2-fluoropyridin-3-yl)phenyl)-6-(piperidin-1-yl)pyridine-3,5-dicarbonitrile], for which the results for the inhibition at 1 µM in assay [1] (setting [4]) and in assay [2] (setting [5]) were over 90% and 70 to 90%, respectively. Also, in assay [3], the pIC50 was over 6.70. For `N#Cc1c(N)nc(N2CCCCC2)c(C#N)c1-c1cc(-c2cccnc2)ccc1F` [Compound 29, 2-amino-4-(2-fluoro-5-(pyridin-3-yl)phenyl)-6-(piperidin-1-yl)pyridine-3,5-dicarbonitrile], in assay [3], the negative logarithm of the IC50 (pIC50) was over 6.70. Turning to `N#Cc1c(N)nc(N2CCCCC2)c(C#N)c1-c1cccc(-c2cccnc2)c1F` [Compound 30, 2-amino-4-(2-fluoro-3-(pyridin-3-yl)phenyl)-6-(piperidin-1-yl)pyridine-3,5-dicarbonitrile], the inhibition at 1 µM lay in the range of 40 to 70% in assay [1] (setting [4]) and 0 to 40% in assay [2] (setting [5]). In assay [3], the negative logarithm of the IC50 (pIC50) is over 6.70. The matching figures for `N#Cc1c(N)nc(N2CCCCC2)c(C#N)c1-c1cc(F)cc(-c2cccnc2)c1` [Compound 31, 2-amino-4-(3-fluoro-5-(pyridin-3-yl)phenyl)-6-(piperidin-1-yl)pyridine-3,5-dicarbonitrile]: 40 to 70%, 0 to 40% and over 6.70. Regarding `Cc1c(C#N)cccc1-c1cc(-c2cn(Cc3cccc(C(C)(C)O)n3)nn2)nc(N)n1` [Etrumadenant, 3-[2-Amino-6-[1-[[6-(2-hydroxypropan-2-yl)pyridin-2-yl]methyl]triazol-4-yl]pyrimidin-4-yl]-2-methylbenzonitrile, reference compound], the inhibition at 1 µM in assay [1] (setting [4]) and in assay [2] (setting [5]) was over 90% throughout. As for `Cc1cc(-c2nnc(N)nc2-c2ccc(F)cc2)cc(Cl)n1` [Imaradenant, 6-(2-chloro-6-methylpyridin-4-yl)-5-(4-fluorophenyl)-1,2,4-triazin-3-amine, reference compound], the inhibition at 1 µM in assay [1] (setting [4]) and in assay [2] (setting [5]) was 40 to 70% in each case. As for `COCCOc1ccc(N2CCN(CCn3ncc4c3nc(N)n3nc(-c5ccco5)nc43)CC2)cc1` [Preladenant, 4-(furan-2-yl)-10-[2-[4-[4-(2-methoxyethoxy)phenyl]piperazin-1-yl]ethyl]-3,5,6,8,10,11-hexazatricyclo[7.3.0.0^2,6]dodeca-1(9),2,4,7,11-pentaen-7-amine, reference compound], the inhibition at 1 µM in assay [1] (setting [4]) and in assay [2] (setting [5]) was 70 to 90% in each case. On to `Nc1nc(-n2cccn2)nc(-n2cccn2)c1Br` [Taminadenant, 5-bromo-2,6-di(pyrazol-1-yl)pyrimidin-4-amine, reference compound], for which the inhibition at 1 µM in assay [1] (setting [4]) and in assay [2] (setting [5]) was 0 to 40% each time.
